The results in this text go back to patent publication US20170296568A1, “SIRTUIN GENE POTENTIATOR, AND PHARMACEUTICAL PRODUCT, COSMETIC PRODUCT, AND FOOD PRODUCT USING SAME” (MORISHITA JINTAN CO., LTD., priority 2012, published 2017).

The assay has as its system hSIRT1 promoter. Nature of the assay: Screening for SIRT1 enhancing polyphenol or terpenoid: hSIRT1 promoter activity (EGFP fluorescence) in Caco-2-hSIRT1p-EGFP cells. Format: cell-based, human. The note with it: 10 μM, 2 days after addition, relative ratio to control (PBS), FIG. 1. The text has this:
First, the promoter region (−1593 to −1 bp) of hSIRT1 (human SIRT1) was acquired using the LA-PCR method using, as a template, a human genome DNA extracted from TIG-1 cells (obtained from Institute of Development, Aging and Cancer, Tohoku University), with primers synthesized based on reported information of the hSIRT1 genomic sequence so as to synthesize primers having added AseI and NheI recognition sequences at their respective ends (hSIRT1p-AseI (SEQ ID NO: 1) and hSIRT1p-NheI (SEQ ID NO: 2)). The PCR reaction condition was at 94° C. for 1 minute, followed by at 98° C. for 20 seconds; and at 68° C. for 2 minutes, 34 cycles; and then at 72° C. for 10 minutes for extension reaction. LA-Taq from Takara Shuzo Co., Ltd. was used as the TaqDNApolymerase. The primers were synthesized by Nippon EGT based on our request.
The hSIRT1 promoter fragment obtained by the LA-PCR was subjected to TA cloning using a pGEM-T Easy vector (manufactured by Promega KK). Furthermore, the base sequence thereof was confirmed by sequencing. The hSIRT1 promoter fragment, inserted into the pGEM-T Easy vector, was cut out by digestion with the restriction enzymes AseI and NheI, and the CMV promoter of a pEGFP-C3 (manufactured by Takara Bio Inc.) was removed by digestion with AseI and NheI in a similar manner, and the hSIRT1 promoter fragment was inserted into that removed site, so that phSIRT1p-EGFP was obtained.
Transfection was performed using a LIPOFECT AMINE 2000 REAGENT (manufactured by Life Technologies) according to its protocol. On the day before the transfection, Caco-2 cells (human colonic cancer-derived cells obtained from Riken BioResource Center) were plated at 1.0×10^6 in a 10-mL dish. On the day of the transfection, phSIRT1p-EGFP (10 μg) was diluted in a serum-free OPTI-MEM medium to a volume of 750 μL, after which 15 μL of LIPOFECT AMINE Reagent was diluted in a serum-free OPTI-MEM medium to […], and they were incubated at room temperature for 5 minutes. The transfection using the LIPOFECT AMINE Reagent was performed in the absence of serum, during which the culture medium of the Caco-2 cells plated on the previous day was removed, and was replaced by 5 mL of serum-free OPTI-MEM medium. After 30 minutes of this, 1.5 mL of DNA-LIPOFECT AMINE 2000 mixture was added to each 10-mL dish. After the addition, the dish was gently shaken to mix the DNA-LIPOFECT AMINE and the OPTI-MEM. After the culture for 3 hours, the DNA-LIPOFECT AMINE mixture solution was removed, and the medium was replaced by a serum-containing culture medium. Subsequently, culture was performed under the environment at 5% CO2/95% air and 37° C. for 21 hours, and the culture medium was replaced by a new one.
Since phSIRT1p-EGFP is resistant to the drug G418, the drug G418 was added to the transfected cells to 70 μg/mL to subject them to the drug selection for a week. The culture medium was replaced by a new one every three days, and G418 was added every time at the same concentration. Accordingly, Caco-2-hSIRT1p-EGFP cells were obtained.
Caco-2-hSIRT1p-EGFP cells were plated at 0.6×10^4 cells/well in a 96-well plate. On the next day, 10 μM polyphenol or terpenoid, or control (PBS) was added to each well. At 2 days after the addition, the culture solution was aspirated, after which 100 μL of 4% paraformaldehyde was added to each well, and the plate was allowed to stand at room temperature for 10 minutes. After the plate was allowed to stand for 10 minutes, 4% paraformaldehyde was aspirated, 100 μL of Cellstain (registered trademark)-Hoechst 33342 solution (Dojindo) diluted 1/500 with PBS was added to each well, and the plate was allowed to stand at room temperature in the dark for 15 minutes and the solution was then aspirated. Then, 100 μL of PBS was added to each well, and the fluorescence intensity was measured using an IN Cell Analyzer 1000 (GE Healthcare, Amersham Place, UK). The promoter activity was represented by a relative ratio to the activity of the control.
For `O=C1O[C@H]2[C@@H]3OC(=O)c4cc(O)c(O)c(O)c4-c4c(O)c(O)c5oc(=O)c6c(c(O)c(O)c7oc(=O)c4c5c76)-c4c(cc(O)c(O)c4O)C(=O)OC[C@H]3OC(O)[C@@H]2OC(=O)c2cc(O)c(O)c(O)c2-c2c1cc(O)c(O)c2O` (mixture of isomers) [punicalagin], the “relative hSIRT1 promoter activity” value is recorded as “particularly strong hSIRT1 promoter enhancing activity”.

Consider `O=c1c(O)c(-c2ccc(O)c(O)c2)oc2cc(O)ccc12` [fisetin], for which the “relative hSIRT1 promoter activity” value was “particularly strong hSIRT1 promoter enhancing activity”.

As for `O=C1OC[C@H]2OC(O)[C@H](O)[C@@H](O)[C@@H]2OC(=O)c2cc(O)c(O)c(O)c2-c2c(O)c(O)c3oc(=O)c4c(c(O)c(O)c5oc(=O)c2c3c54)-c2c1cc(O)c(O)c2O` (mixture of isomers) [punicalin], the “relative hSIRT1 promoter activity” value is “particularly strong hSIRT1 promoter enhancing activity”.

Turning to `C[C@@]12C=Cc3occc3[C@H]1CC[C@@]13C[C@@H](CC[C@H]12)[C@@](O)(CO)C3` [kahweol], the “relative hSIRT1 promoter activity” value is “particularly strong hSIRT1 promoter enhancing activity”.

Consider `O=c1oc2cc(O)ccc2c2ccc(O)cc12` [urolithin A], for which the “relative hSIRT1 promoter activity” value is given as “particularly strong hSIRT1 promoter enhancing activity”.
